Measurements published in article PMC3005796 (Biochemistry, 2010).

What was measured:
[1] = biological target: T1, Cytochrome P450 2B4dH(H226Y) (Oryctolagus cuniculus, UniProt P00178, H226Y); conditions: for ΔAmax: 2B4dH, 1 μM P450, 25 °C, 50 mM potassium phosphate pH 7.4, 500 mM NaCl, 500 mM sucrose
[2] = biological target: T2, Human cytochrome P450 2B6dH (Homo sapiens, UniProt P20813); conditions: 1 μM P450, 25 °C, 50 mM potassium phosphate pH 7.4, 500 mM NaCl, 500 mM sucrose
[3] = biological target: T3, P450 2B4 (Oryctolagus cuniculus, UniProt P00178, H226Y); conditions: ratio 2B4/2B6
[4] = system: 2B6; conditions: ref [20]; cited from earlier work
[5] = biological target: T1, Cytochrome P450 2B4dH(H226Y); assay: biochemical
[6] = biological target: T2, Human cytochrome P450 2B6dH; assay: biochemical
[7] = biological target: T3, P450 2B4; assay: biochemical
[8] = biological target: P450 2B6 (Homo sapiens, UniProt P20813, D28G/E2A/H23K/H27K/N25S/P24T/R22K/R29K/T26S); assay: biochemical

SMILES | ΔAmax [1] [OU μM^-1] | fold higher Ks of 2B4 compared with 2B6 ([1]; ratio 2B4/2B6) [fold] | ΔAmax [2] [OU μM^-1] | fold higher Ki of 2B4 than 2B6 [3] [fold] | suppression of bupropion hydroxylation by 2B6 [4] [%] | Kd [5] [nM] | Kd [6] [nM] | Ki [7] [nM] | Ki [8] [nM]
COC(=O)[C@H](c1ccccc1Cl)N1CCc2sccc2C1 [Clopidogrel, clopidogrel] | 0.05 ± 0.001 | ~6 | 0.04 ± 0.005 | 4 | 68 | 600 ± 60 | 100 ± 70 | 360 ± 40 | 100 ± 10
Clc1ccccc1CN1CCc2sccc2C1 [Ticlopidine, ticlopidine] | 0.03 ± 0.008 | – | 0.02 ± 0.001 | – | 90 | 1300 ± 100 | – | 810 ± 100 | –
